pIC50: −log10 of the molar value. Activity calls are given as the source filed them. No cut-off for these calls is given here.
Key:
[1] = Partition coefficient (logP); format: physicochemical; conditions: octanol/water
[2] = organism: Bos taurus; assay: Tested for antioxidant activity using bovine heart mitochondria and iron(II) / dihydroxy fumaric acid (DHF) at 100 uM; format: functional
[3] = Reducing activity to scavenge 10 uM 1, 1-diphenylpicrylhydrazyl (DPPH); format: functional
[4] = organism: Bos taurus; assay: Antioxidant activity in bovine heart mitochondria using iron(II) / dihydroxy fumaric acid (DHF); format: functional
[5] = Inhibition time for 20 uM during peroxidation of liposomal suspension of dilinoleoylphosphatidylcholine (DPLC) indicated by DMVN at 40 degree Centigrade
[6] = Inhibition time for 20 uM during peroxidation of methyl linoleate / DMVN in TBA /methanol medium at 40 degree Centigrade
[7] = Inhibition against peroxidation of liposomal suspension of dilinoleoylphosphatidylcholine (DPLC) indicated by DMVN at 40 degree Centigrade
[8] = Percent inhibition at 100 uM against peroxidation of methyl linoleate / DMVN in TBA /methanol medium at 40 degree Centigrade
[9] = Inhibition time for 20 uM during peroxidation of liposomal suspension of dilinoleoylphosphatidylcholine (DPLC) indicated by DMVN at 40 degree centigrade; inactive
[10] = Inhibition time for 20 uM during peroxidation of methyl linoleate / DMVN in TBA /methanol medium at 40 degree centigrade; inactive
[11] = Reducing activity to scavenge 10 uM 1, 1-diphenylpicrylhydrazyl (DPPH); inactive; format: functional
[12] = Percent inhibition at 100 uM against peroxidation of liposomal suspension of dilinoleoylphosphatidylcholine (DPLC) indicated by DMVN at 40 degree Centigrade
[13] = organism: Bos taurus; assay: Tested for antioxidant activity using bovine heart mitochondria and iron(II) / dihydroxy fumaric acid (DHF); format: functional

CCCCCCn1c(=O)[nH]c(=O)c2[nH]c(O)nc21
logP [1]: -0.02
inhibition [2]: 26%
RC10 [3]: 4.5 µM

Cn1c(=O)[nH]c2c(=O)[nH]c(=O)[nH]c21
inhibition [2]: 9%
RC10 [3]: 5 µM

CCCCCCCCCCn1c(N)c(N)c(=O)[nH]c1=O
logP [1]: 3.04
pIC50 [4]: 6.55
T inh [5]: 3700 s
T inh [6]: 114 s
RC10 [3]: 5.6 µM

O=c1[nH]c(=O)c2[nH]c(=O)[nH]c2[nH]1 [URIC ACID]
logP [1]: -2.91

CCCCCCCCCCCCNc1nc(O)nc(O)c1N
pIC50 [4]: 6.52
T inh [5]: 3500 s
T inh [6]: 105 s
RC10 [3]: 6.4 µM

CCCCCCCCCCCCCCCCCCNc1[nH]c(=O)n(C)c(=O)c1N
pIC50 [4]: 4.66
T inh [5]: 1750 s
T inh [6]: 114 s
RC10 [3]: 6.2 µM

CCCCCCCCCCCCNc1c(N)nc(O)nc1O
pIC50 [4]: 6.24
T inh [5]: 6000 s
T inh [6]: 84 s
RC10 [3]: 4.5 µM

CCCCCCCCCCCCn1c(O)nc2c(=O)[nH]c(=O)[nH]c21
pIC50 [4]: 6.00
pIC50 [7]: 4.96
inhibition [8]: 13%
RC10 [3]: 6.2 µM

Cn1c(=O)[nH]c2[nH]c(=O)[nH]c2c1=O
inhibition [2]: 10%
inhibition [8]: 13%
RC10 [3]: 4.5 µM

CCCCCCCCCCCCNc1cc(O)nc(O)n1
inhibition [2]: 2%
T inh [9]: inactive
T inh [10]: inactive
RC10 [11]: inactive

Cn1c(=O)[nH]c2[nH]c(=O)n(C)c2c1=O
inhibition [2]: 14%
RC10 [3]: 14 µM

CCCCCCCCn1c(N)c(N)c(=O)[nH]c1=O
logP [1]: 2.05
pIC50 [4]: 6.21
T inh [5]: 3350 s
T inh [6]: 114 s
RC10 [3]: 6.5 µM

CCCCCCCCCCCCn1c(=O)[nH]c2[nH]c(O)nc2c1=O
pIC50 [4]: 5.90
pIC50 [7]: 5.00
inhibition [8]: 25%
RC10 [3]: 5.2 µM

CCCCCCCCCCCCNc1c(N)n(Cc2ccccc2)c(=O)[nH]c1=O
pIC50 [4]: 6.17
RC10 [3]: 6.5 µM

Nc1[nH]c(=O)[nH]c(=O)c1N
logP [1]: -1.92
pIC50 [4]: 4.00
RC10 [3]: 7 µM

Cn1c(N)c(N)c(=O)[nH]c1=O
logP [1]: -1.4
pIC50 [4]: 4.09
T inh [5]: 800 s
T inh [6]: 156 s
RC10 [3]: 4.5 µM

Cn1c(=O)[nH]c(N)c(N)c1=O
pIC50 [4]: 4.30
RC10 [3]: 6 µM

Cn1c(O)nc2[nH]c(=O)[nH]c(=O)c21
inhibition [2]: 20%
RC10 [3]: 20 µM

Cn1c(=O)[nH]c(=O)c2c1[nH]c(=O)n2C
inhibition [2]: 5%
RC10 [11]: inactive

CCCCCCCCCCCCn1c(=O)[nH]c(=O)c2[nH]c(O)nc21
logP [1]: 2.9
pIC50 [4]: 5.80
RC10 [3]: 3.2 µM

Cc1c(C)c2c(c(C)c1O)CCC(C)(C(=O)O)O2 (centres undefined) [TROLOX]
pIC50 [4]: 5.30
T inh [5]: 15000 s
T inh [6]: 195 s
RC10 [3]: 3.7 µM

CCCCCCCCCCn1c(=O)[nH]c(=O)c2[nH]c(O)nc21
logP [1]: 2.04
pIC50 [4]: 5.43
pIC50 [7]: 4.66
inhibition [8]: 8%
RC10 [3]: 3.5 µM

Cn1c(=O)c2[nH]c(=O)[nH]c2n(C)c1=O
inhibition [2]: 36%
RC10 [3]: 3.5 µM

Oc1nc(O)c2nc(O)[nH]c2n1
inhibition [2]: 5%
inhibition [12]: 0.5%
inhibition [8]: 7%
RC10 [3]: 4.5 µM

Cc1c(C)c2c(c(C)c1O)CC[C@@](C)(CCC[C@H](C)CCC[C@H](C)CCCC(C)C)O2
inhibition [2]: 46%
T inh [9]: inactive
T inh [6]: 190 s
RC10 [3]: 6 µM

CCCCCCCCCCCCn1c(N)c(N)c(=O)n(C)c1=O
pIC50 [4]: 6.62
T inh [5]: 3150 s
T inh [6]: 126 s
RC10 [3]: 5 µM

CCCCCCCCCCCCn1c(N)c(N)c(=O)[nH]c1=O
pIC50 [4]: 6.57
T inh [5]: 3350 s
T inh [6]: 102 s
RC10 [3]: 7 µM

CCCCCCCCCCCCn1c(=O)[nH]c(N)c(N)c1=O
pIC50 [4]: 6.59
T inh [5]: 4200 s
T inh [6]: 144 s
RC10 [3]: 5.5 µM

Cn1c(=O)[nH]c(=O)c2[nH]c(O)nc21
inhibition [2]: 11%
inhibition [8]: 10%
RC10 [3]: 3.5 µM

CCCCCCn1c(N)c(N)c(=O)[nH]c1=O
logP [1]: 1.01
pIC50 [13]: 5.46
T inh [5]: 2010 s
T inh [6]: 105 s
RC10 [3]: 6.5 µM

CCCCCCCCCCCCn1c(=O)cc(N)[nH]c1=O
inhibition [2]: 1%

CCCCCCCCCCCCCCCCn1c(O)nc2c(=O)[nH]c(=O)[nH]c21
pIC50 [4]: 6.12
pIC50 [7]: 5.10
inhibition [8]: 10%
RC10 [3]: 4.5 µM

CCCCCCCCCCCCCCCCNc1nc(O)nc(O)c1N
pIC50 [4]: 6.05
T inh [5]: 2020 s
T inh [6]: 150 s
RC10 [3]: 6.4 µM

CCCCCCCCn1c(=O)[nH]c(=O)c2[nH]c(O)nc21
logP [1]: 1.1
pIC50 [4]: 4.55
pIC50 [7]: 4.43
inhibition [8]: 15%
RC10 [3]: 6.5 µM

CCCCCCCCCCCCn1c(O)nc2[nH]c(=O)[nH]c(=O)c21
pIC50 [4]: 5.80
pIC50 [7]: 3.70
inhibition [8]: 10%
RC10 [3]: 27 µM

CCCCCCCCCCCCn1c(=O)n(C)c(=O)c2c1n(C)c(=O)n2C
inhibition [2]: 5%
inhibition [12]: 0.5%
inhibition [8]: 0.7%
RC10 [11]: inactive

CCCCCCCCCCCCn1c(=O)n(C)c(=O)c2[nH]c(O)nc21
pIC50 [4]: 6.07
pIC50 [7]: 4.74
inhibition [8]: 15%
RC10 [3]: 3 µM

Source: ChEMBL document CHEMBL1126693, “Long-chain-substituted uric acid and 5,6-diaminouracil derivatives as novel agents against free radical processes: synthesis and in vitro activity” (J Med Chem, 1993)
